# Results as given in patent publication US7056908B2, “Pharmaceutical compositions and methods for preventing skin tumor formation and causing regression of existing tumors” (priority 1991, dated 2006).
# Key:
# primary keratinocytes [1] = test: Cornified envelope formation in primary keratinocytes; format: cell-based, mouse; conditions: additional experiment, 60 nM bryostatin
# Description: Cornified Envelope Quantitation. Keratinocytes were analyzed for cornified envelope formation as described (Nagae, S. et al, “Effect of retinoic acid on cornified envelope formation: difference between spontaneous envelope formation in vivo or in vitro and expression of envelope competence,” J. Invest., Dermatol., 89: 51–58, 1987), with minor modifications. Floating cells were harvested by collecting culture medium from each 60 mm dish and combining with two washes using phosphate-buffered saline without Ca^2+ and Ms^+2 (PBS). Cells were pelleted for 5 minutes at 1000 rpm in a benchtop clinical centrifuge and resuspended in 100 μl of lysis buffer (2% sodium dodecyl sulfate (SDS) and 20 mM dithiothreitol in PBS). Attached cells were harvested in 250 μl lysis buffer, combined with the preparation of floating cells, and incubated at 95° for 10 minutes. The non-solubilized, intact cornified envelopes, characteristic of terminally differentiated keratinocytes, were counted using a hemocytometer (Nagae, S. et al, “Effect of retinoic acid on cornified envelope formation: difference between spontaneous envelope formation in vivo or in vitro and expression of envelope competence,” J. Invest. Dermatol., 89: 51–58, 1987).
# Floating and attached cell populations were harvested and cornified envelopes isolated. Data are mean values for three separate dishes±standard error of the mean from one experiment.
# 7 day old primary keratinocytes were cultured with or without 60 nM bryostatin for 15 hours. […] Each data bar is the average value from duplicate dishes with the range indicated by error bars.
# primary keratinocytes [2] = format: cell-based, mouse; conditions: 60 nM bryostatin for 1 day
# Description: EGF binding was assessed in 6-well tissue culture dishes plated at a cell density of 2.5×10^6 cells/well (Strickland, J. E. et al, “Interaction of epidermal growth factor with basal and differentiating epidermal cells of mice resistant and sensitive to carcinogenesis,” Carcinogenesis, 5: 735–740, 1984). […] A second set of cultures received, in addition, 1 μg/ml unlabelled EGF to assess non-specific binding of radioactive ligand. Following the incubation period, cultures were washed 4 times with ice-cold binding buffer, harvested in 1.5 ml lysis buffer (0.1 M tris (pH 7.4), 0.5% SDS, 1 mM EDTA), and radioactivity determined by scintillation counting.
# Exposure of a variety of cultured cell types to TPA results in inhibition of EGF binding which is attributed to PKC-mediated phosphorylation of the EGF receptor (Diamond, L., “Tumor promoters and cell transformation,” In: D. Grunberger and S. P. Goff. (eds.), Mechanisms of Cellular Transformation by Carcinogenic Agents, pp. 73–133, New York: Pergamon Press. 1987).
# Each point is the mean of trilpicate dishes±standard error of the mean.
smiles,measurement,setting,value
CCC/C=C/C=C/C(=O)O[C@H]1/C(=C/C(=O)OC)C[C@H]2C[C@H]([C@@H](C)O)OC(=O)C[C@H](O)C[C@@H]3C[C@H](OC(C)=O)C(C)(C)[C@](O)(C[C@@H]4C/C(=C/C(=O)OC)C[C@H](/C=C/C(C)(C)[C@]1(O)O2)O4)O3 [bryostatin],reduction of cornified envelope formation by bryostatin pre-treatment,primary keratinocytes [1]; TPA-treated cultures,70%
same,reduction of cornified envelope formation by bryostatin pre-treatment,primary keratinocytes [1]; staurosporine-treated cultures,70%
same,block by bryostatin pre-treatment of staurosporine-mediated inhibition of 125I-EGF binding,primary keratinocytes [2]; average over a 4 hour period,50%
same,block by bryostatin pre-treatment of TPA-mediated inhibition of 125I-EGF binding,primary keratinocytes [2]; over a 4 hour period,completely blocked
